Reference: US20080145313A1, “Compositions and Methods for the Treatment and Prevention of Neoplastic Disorders” (Genesis Research & Development Corporation Limited, priority 2006, published 2008)

How the values were obtained:
[1] = tested on: target transcript mRNA in A549 cells; assay: Level of mRNA of target transcript in A549 cells by quantitative RT-PCR (Tables 12 and 13); assay type: cell-based, human; conditions: 24 h post-transfection; for mRNA knockdown of transporter gene target transcript, 0.1 nM: 0.1 nM siRNA; for mRNA knockdown of transporter gene target transcript, 1 nM: 1 nM siRNA
Method in brief: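 Target mRNA was measured by SYBR Green quantitative RT-PCR using random-primed cDNA, normalised to HPRT and Lamin. Samples came from A549 cells 24 h post-transfection with 0.1, 1.0 or 10 nM siRNA.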

[2] = tested on: A549 cells; assay: Growth inhibition of siRNA-transfected A549 cells, SYBR Green I DNA content; assay type: cell-based, human; conditions: A549 cells, 10 nM siRNA, DNA content 96 hours after transfection, transporter gene targets
Method in brief: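 Growth read-out: cellular DNA quantified with SYBR Green I (485/535 nm) 96 h after transfection, cells frozen, thawed and lysed in PBS/1% Triton X-100, pH 7. Cells (A549, 5×10^3 cells/cm^2) received 10 nM siRNA by RNAiMAX; non-specific siRNA served as control; triplicate wells averaged.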

## SEQ ID NO: 4975: siRNA targeting ABCC5 (MRP5) (chain 1 ATTCTGAGCTGAGAATGCATGGAGG; chain 2 AUUCUGAGCUGAGAAUGCAUGGAGG; chemistry not given here; one strand in two spellings)
[1]
  mRNA knockdown of transporter gene target transcript, 0.1 nM: − (<50% mRNA knockdown)
  mRNA knockdown of transporter gene target transcript, 1 nM: + (50-70% mRNA knockdown)
[2]
  Growth Inhibition in A549 cells by 10 nM siRNA: ++ (inhibits by at least 75%)

## SEQ ID NO: 4935: siRNA targeting SLC29A2 (ENT2) (chain 1 TAACACACGATGGACATGAGGATGC; chain 2 UAACACACGAUGGACAUGAGGAUGC; chemistry not given here; one strand in two spellings)
[1]
  mRNA knockdown of transporter gene target transcript, 0.1 nM: + (50-70% mRNA knockdown)
  mRNA knockdown of transporter gene target transcript, 1 nM: + (50-70% mRNA knockdown)
[2]
  Growth Inhibition in A549 cells by 10 nM siRNA: − (no growth inhibition)

## SEQ ID NO: 4895: siRNA targeting SLC2A5 (GLUT5) (chain 1 ATGTATGGCATCCAGGACACTGTGT; chain 2 AUGUAUGGCAUCCAGGACACUGUGU; Antisense strand given in DNA and RNA notation, chemistry not given here; one strand in two spellings)
[1]
  mRNA knockdown of transporter gene target transcript, 0.1 nM: ++ (70-90% mRNA knockdown)
  mRNA knockdown of transporter gene target transcript, 1 nM: ++ (70-90% mRNA knockdown)
[2]
  Growth Inhibition in A549 cells by 10 nM siRNA: − (no growth inhibition)

## SEQ ID NO: 4917: siRNA targeting SLC23A2 (SVCT2) (chain 1 AACAGCTGTAACTTGTACGCAGTCC; chain 2 AACAGCUGUAACUUGUACGCAGUCC; Antisense strand given in DNA and RNA notation, chemistry not given here; one strand in two spellings)
[1]
  mRNA knockdown of transporter gene target transcript, 0.1 nM: ++ (70-90% mRNA knockdown)
  mRNA knockdown of transporter gene target transcript, 1 nM: ++ (70-90% mRNA knockdown)
[2]
  Growth Inhibition in A549 cells by 10 nM siRNA: − (no growth inhibition)

## SEQ ID NO: 4905: siRNA targeting SLC7A11 (xCT) (chain 1 ATTATGAGGAGTTCCACCCAGACTC; chain 2 AUUAUGAGGAGUUCCACCCAGACUC; Antisense strand given in DNA and RNA notation, chemistry not given here; one strand in two spellings)
[1]
  mRNA knockdown of transporter gene target transcript, 0.1 nM: ++ (70-90% mRNA knockdown)
  mRNA knockdown of transporter gene target transcript, 1 nM: ++ (70-90% mRNA knockdown)
[2]
  Growth Inhibition in A549 cells by 10 nM siRNA: ++ (inhibits by at least 75%)

## SEQ ID NO: 4962: siRNA targeting ATP6V1F (chain 1 TGGAGTCCTTGGCGGCGTCATATGG; chain 2 UGGAGUCCUUGGCGGCGUCAUAUGG; chemistry not given here; one strand in two spellings)
[1]
  mRNA knockdown of transporter gene target transcript, 0.1 nM: − (<50% mRNA knockdown)
  mRNA knockdown of transporter gene target transcript, 1 nM: + (50-70% mRNA knockdown)
[2]
  Growth Inhibition in A549 cells by 10 nM siRNA: − (no growth inhibition)

## SEQ ID NO: 4956: siRNA targeting ATP6V1C1 (chain 1 TAGACTTCTAGTTAGCAAACTTCCT; chain 2 UAGACUUCUAGUUAGCAAACUUCCU; chemistry not given here; one strand in two spellings)
[1]
  mRNA knockdown of transporter gene target transcript, 0.1 nM: ++ (70-90% mRNA knockdown)
  mRNA knockdown of transporter gene target transcript, 1 nM: ++ (70-90% mRNA knockdown)
[2]
  Growth Inhibition in A549 cells by 10 nM siRNA: − (no growth inhibition)

## SEQ ID NO: 4964: siRNA targeting ATP7A (chain 1 TAACCATCATATATATCATCAGCCC; chain 2 UAACCAUCAUAUAUAUCAUCAGCCC; chemistry not given here; one strand in two spellings)
[1]
  mRNA knockdown of transporter gene target transcript, 0.1 nM: − (<50% mRNA knockdown)
  mRNA knockdown of transporter gene target transcript, 1 nM: − (<50% mRNA knockdown)
[2]
  Growth Inhibition in A549 cells by 10 nM siRNA: − (no growth inhibition)
